This is an account of results in patent US12570615B2, “Quinazolinone derivatives” (Hoffmann-La Roche Inc., priority 2021, dated 2026).

One assay deals with BRAF (V600E) (Homo sapiens, UniProt P15056, V600E). As to the kind of experiment: KD BRAF (V600E) (Table 1). It is filed as binding.
For assay [1], the system named is P-ERK (ERK phospho-T202/Y204) in HCT116 cells expressing WT BRAF. As to the kind of experiment: HTRF assay for P-ERK determination in HCT116 cells (BRAF activation). It is filed as cell-based. As to conditions: Homo sapiens, HCT-116, drug incubation 1 hour, concentration giving 50% of the maximum activation achieved by Dabrafenib. The text has this:
(§1) A375 is a cellular cancer model expressing V600E mutated BRAF and HCT116 a cellular cancer model expressing WT BRAF. First generation BRAF inhibitors such as e.g. dabrafenib induce a paradox effect on tumour cells in that they inhibit the growth of V600E mutated BRAF cells (such as e.g. A375), while they activate growth in WT BRAF cells (such as e.g. HCT 116). ERK 1,2 phosphorylation (terminal member of the phosphorylation cascade of the MAPK pathway) is hereafter reported as main readout for the activation status of the MAPK pathway. DMEM no-phenol red medium supplemented with L-glutamine was purchased from (Thermo Fisher Scientific). Fetal bovine serum (FBS) was purchased from VWR. Advanced ERK phospho-T202/Y204 kit—10,000 tests was purchased from Cisbio cat #64AERPEH. A375 (catalog #CRL-1619) and HCT116 (catalog #CCL-247) cells were originally obtained from American type Culture Collection (ATCC) and banked by the Roche repository. 384-Well microplates utilized were purchased from Greiner Bio-One, 384-well, (With Lid, HiBase, Low volume cat 784-080).
(§2) Prior to the assay, A375 and HCT116 cell lines are maintained in DMEM no-phenol red medium supplemented with 10% fetal bovine serum (FBS). Following compound treatment, P-ERK levels are determined by measuring FRET fluorescence signal induced by selective binding of 2 antibodies provided in the mentioned kit (Cisbio cat #64AERPEH) on ERK protein when phosphorylated at Thr202/Tyr204. Briefly, 8000 cells/well in 12 μl media/well are plated in the 384-well plate and left overnight in the incubator (at 37° C. with 5% CO2-humidified atmosphere), the following day the plate is treated in duplicate with test compounds, dabrafenib and PLX8394 (the latter two as controls) at the following final drug concentrations: 10 μM-3 μM 1 μM-0.3 μM-0.1 μM-0.03 μM-0, 01 μM-0.003 μM-0.001 μM, all wells are subjected to DMSO normalization and drug incubation occurs for 1 hour. Then, […] of a 4× lysis buffer supplied with the kit are added to the wells, the plate is then centrifuged for 30 second (3000 rpm) and incubated on a plate shaker for 1 h at rt.
(§3) At the end of the incubation 4 μL/well of advanced P-ERK antibody solution (prepared according to manufacturer's instruction) followed by 4 μL/well of criptate P-ERK antibody solution (prepared according to manufacturer's instruction) (Cisbio cat #64AERPEH) are added to test wells.
(§4) In order to allow proper data normalization control wells non drug treated reported in the following table are always included in each plate (according to manufacturer's instruction):
(§5) The plate is then centrifuged at 3000 rpm for 30 second, sealed to prevent evaporation and incubated overnight in the dark at room temperature.
(§6) The plate is then analyzed and fluorescence emission value collected through a Pherastast FSX (BMG Labtech) apparatus at […].
(§7) The obtained fluorescence values are processed according to the formula Ratio=[…]*10000 then the average of the ratio on the blank is subtracted to all values.
Data are normalized in the case of HCT116 cells (BRAF activation) considering the average of the ratio (blank subtracted) derived by DMSO only treated cells as 0% and by considering the average of the ratio (blank subtracted) derived by Dabrafenib treated cells at the concentration which provides the highest signal as 100%. Individual points are fitted with either sigmoidal or bell shape curves. The EC50 is the concentration at which activation equal to 50% of the maximum activation achieved by Dabrafenib is obtained.

The next assay has as its target BRAF (wt) (Homo sapiens, UniProt P15056). As to the kind of experiment: KD BRAF (wt) (Table 1). Type of assay: binding.
Assay [2] relates to P-ERK (ERK phospho-T202/Y204) in A375 cells expressing V600E mutated BRAF. The assay is described as follows: HTRF assay for P-ERK determination in A375 cells (BRAF inhibition). Type of assay: cell-based. As to conditions: Homo sapiens, A-375, P-ERK level, drug incubation 1 hour, DMSO = 100%, 10 μM Dabrafenib = 0%.
From the text: as §1, §2, §3, §4, §5, §6, §7
Data are normalized in the case of A375 cells (BRAF inhibition) considering the average of the ratio (blank subtracted) derived by DMSO only treated cells as 100% and by considering the average of the ratio (blank subtracted) derived by 10 μM Dabrafenib treated cells as 0%. Mean of the normalized points are fitted with sigmoidal curve and IC50 determined.

A value given as a limit tells only on which side of the number the result lay.

Chain of BRAF (wt) (P15056 whole entry): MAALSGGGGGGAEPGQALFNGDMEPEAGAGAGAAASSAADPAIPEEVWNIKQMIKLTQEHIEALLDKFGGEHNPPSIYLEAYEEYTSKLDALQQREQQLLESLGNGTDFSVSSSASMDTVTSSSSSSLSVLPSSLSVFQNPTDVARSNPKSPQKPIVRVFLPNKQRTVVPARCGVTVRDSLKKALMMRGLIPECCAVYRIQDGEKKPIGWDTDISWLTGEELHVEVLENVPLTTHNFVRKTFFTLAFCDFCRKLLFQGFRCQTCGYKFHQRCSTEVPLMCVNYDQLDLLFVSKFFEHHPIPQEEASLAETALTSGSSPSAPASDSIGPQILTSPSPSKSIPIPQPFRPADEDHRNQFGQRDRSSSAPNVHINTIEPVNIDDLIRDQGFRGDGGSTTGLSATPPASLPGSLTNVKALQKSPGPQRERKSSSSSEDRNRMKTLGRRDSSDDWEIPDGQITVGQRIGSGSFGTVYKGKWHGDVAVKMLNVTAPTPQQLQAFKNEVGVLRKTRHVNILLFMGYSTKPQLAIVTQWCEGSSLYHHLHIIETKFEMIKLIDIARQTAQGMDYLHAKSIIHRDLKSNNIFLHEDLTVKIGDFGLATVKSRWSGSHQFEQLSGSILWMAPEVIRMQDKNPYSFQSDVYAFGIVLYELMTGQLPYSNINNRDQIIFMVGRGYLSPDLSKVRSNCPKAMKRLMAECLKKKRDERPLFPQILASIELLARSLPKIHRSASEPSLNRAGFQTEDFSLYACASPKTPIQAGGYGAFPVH
Chain of BRAF (V600E) (P15056 whole entry V600E): as the sequence (P15056 whole entry) above, with V600E counted along it

What is called Kd is the free concentration of one partner at which half of the binding sites on the other are occupied at equilibrium, for simple one-to-one binding. Low readings indicate a tighter complex, high ones a looser complex. The term EC50 denotes the concentration needed to bring the measured effect to its halfway point. High values mean weaker potency, low ones greater potency. A word on the IC50: it is the concentration that inhibits the measured activity by half. The low end stands for inhibition by little substance, the high end for a need for much substance. As for `CCN(C)S(=O)(=O)Nc1ccc(F)c(Oc2ccc3ncn(CCCC(=O)OC(C)(C)C)c(=O)c3c2)c1C#N` [Example 1, tert-butyl 4-[6-[2-cyano-3-[[ethyl(methyl)sulfamoyl]amino]-6-fluoro-phenoxy]-4-oxo-quinazolin-3-yl]butanoate], the dissociation constant (Kd) on BRAF (V600E) amounted to 26.7 nM; on BRAF (wt), 15.3 nM. A half-maximal effect in assay [1] (EC50) was put at 2360 nM. In addition, the IC50 in assay [2] amounted to 19.8 nM.
For `CC(C)(C)OC(=O)N1CCC(CCn2cnc3ccc(Oc4c(F)ccc(NS(=O)(=O)N5CC[C@@H](F)C5)c4C#N)cc3c2=O)CC1` [Example 2, tert-butyl 4-[2-[6-[2-cyano-6-fluoro-3-[[(3R)-3-fluoropyrrolidin-1-yl]sulfonylamino]phenoxy]-4-oxo-quinazolin-3-yl]ethyl]piperidine-1-carboxylate], the dissociation constant (Kd) is 21.4 nM at BRAF (V600E) and 18.9 nM on BRAF (wt). In addition, the EC50 in assay [1] was determined as 2250 nM. For the same compound, inhibition in assay [2] was half-maximal at 30.3 nM (IC50).
The matching figures for `CCN(C)S(=O)(=O)Nc1ccc(F)c(Oc2ccc3ncn(CCC4CCN(C(=O)OC(C)(C)C)CC4)c(=O)c3c2)c1C#N` [Example 3, tert-butyl 4-[2-[6-[2-cyano-3-[[ethyl(methyl)sulfamoyl]amino]-6-fluoro-phenoxy]-4-oxo-quinazolin-3-yl]ethyl]piperidine-1-carboxylate]: 162 nM, 78.3 nM, 6400 nM and 41 nM.
The matching figures for `CC(C)(C)OC(=O)NCCCn1cnc2ccc(Oc3c(F)ccc(NS(=O)(=O)N4CC[C@@H](F)C4)c3C#N)cc2c1=O` [Example 4, tert-butyl N-[3-[6-[2-cyano-6-fluoro-3-[[(3R)-3-fluoropyrrolidin-1-yl]sulfonylamino]phenoxy]-4-oxo-quinazolin-3-yl]propyl]carbamate]: 2.75 nM, 1.09 nM, 7080 nM and 73.5 nM.
Take `CC(C)(C)OC(=O)NCCCn1cnc2ccc(Oc3c(F)ccc(NS(=O)(=O)N4CCCC4)c3C#N)cc2c1=O` [Example 5, tert-butyl N-[3-[6-[2-cyano-6-fluoro-3-(pyrrolidin-1-ylsulfonylamino)phenoxy]-4-oxo-quinazolin-3-yl]propyl]carbamate]: the figures for the Kd at BRAF (V600E) and on BRAF (wt) were 2.82 nM and 1.35 nM, respectively. For the same compound, in assay [1], it took 1190 nM to reach a half-maximal effect (EC50). In assay [2], this compound showed an IC50 of 18.1 nM.
The matching figures for `CCN(C)S(=O)(=O)Nc1ccc(F)c(Oc2ccc3ncn(CCCNC(=O)OC(C)(C)C)c(=O)c3c2)c1C#N` [Example 6, tert-butyl N-[3-[6-[2-cyano-3-[[ethyl(methyl)sulfamoyl]amino]-6-fluoro-phenoxy]-4-oxo-quinazolin-3-yl]propyl]carbamate]: 19.4 nM, 6.36 nM, ≥ 10000 nM and 41.6 nM.
In the same order, the values of `CC(C)(C)OC(=O)N1CCC(CCn2cnc3ccc(Oc4c(F)ccc(NS(=O)(=O)N5CCCC5)c4C#N)cc3c2=O)CC1` [Example 7, tert-butyl 4-[2-[6-[2-cyano-6-fluoro-3-(pyrrolidin-1-ylsulfonylamino)phenoxy]-4-oxo-quinazolin-3-yl]ethyl]piperidine-1-carboxylate] are 20.8 nM, 12.2 nM, 2100 nM and 52 nM.
Regarding `CC(C)(C)OC(=O)NCCCn1cnc2ccc(Oc3c(F)ccc(NS(=O)(=O)C4CCCC4)c3C#N)cc2c1=O` [Example 8, tert-butyl N-[3-[6-[2-cyano-3-(cyclopentylsulfonylamino)-6-fluoro-phenoxy]-4-oxo-quinazolin-3-yl]propyl]carbamate], the Kd at BRAF (V600E) was 7.83 nM; at BRAF (wt) it was 4.86 nM. For the same compound, the EC50 in assay [1] is 2430 nM. In addition, the IC50 in assay [2] stood at 33.9 nM.
